Measured values from PubChem BioAssay (NCI).
Values joined by “and” are separate entries in the source; they are usually repeats but may differ in a detail not shown here. Equal entries are not always repeated.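 Values below derive from 48-hour exposures of cells grown in 96-well plates, with endpoints linearly interpolated between the two concentrations bracketing the appropriate inhibition level. GI50 is the concentration that inhibits growth by half. The concentration for full growth arrest is given as TGI.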

Columns and labels:
Assay in all cases: inhibition of tumour cell growth, NCI panel, 48 h
HL-60(TB) leukemia = test system: HL-60(TB) leukemia
KM12 colon = test system: KM12 colon
MCF7 breast = test system: MCF7 breast
MDA-MB-231 breast = test system: MDA-MB-231 breast
NCI-H226 lung = test system: NCI-H226 lung
NCI-H460 lung = test system: NCI-H460 lung
PC-3 prostate = test system: PC-3 prostate
RPMI-8226 leukemia = test system: RPMI-8226 leukemia
RXF 393 renal = test system: RXF 393 renal
SK-MEL-5 melanoma = test system: SK-MEL-5 melanoma

Row | Structure (SMILES) | TGI (HL-60(TB) leukemia) | TGI (KM12 colon) | TGI (MCF7 breast) | TGI (MDA-MB-231 breast) | TGI (NCI-H226 lung) | TGI (NCI-H460 lung) | TGI (PC-3 prostate) | TGI (RPMI-8226 leukemia) | TGI (RXF 393 renal) | TGI (SK-MEL-5 melanoma) | GI50 (HL-60(TB) leukemia) | GI50 (KM12 colon) | GI50 (MCF7 breast) | GI50 (MDA-MB-231 breast) | GI50 (NCI-H226 lung) | GI50 (NCI-H460 lung) | GI50 (PC-3 prostate) | GI50 (RPMI-8226 leukemia) | GI50 (RXF 393 renal) | GI50 (SK-MEL-5 melanoma)
1 | Nc1nc(N)c(N=Nc2ccc([As](=O)(O)O)cc2)c(=O)[nH]1 | > 100 µM | > 100 µM | > 100 µM | > 100 µM | > 100 µM | > 100 µM | > 100 µM | > 100 µM | > 100 µM | > 100 µM |  |  |  |  |  |  |  |  |  | 
2 | C=CCc1cccc(/C=N/NC(=O)CN2CCN(Cc3ccccc3)CC2)c1O | 4.79 µM | 15 µM | 12.5 µM | 15.5 µM | 14 µM | 11.6 µM | 16.1 µM | 12.7 µM | 16.1 µM | 3.53 µM | 1.6 µM | 2.56 µM | 2.52 µM | 2.49 µM | 2.64 µM | 1.41 µM | 3.45 µM | 1.47 µM | 0.638 µM | 1.26 µM
3 | N#Cc1c(-c2ccc(F)cc2)c(-c2ccc(F)cc2)nn(CCO)c1=O | 0.292 µM | 4.49 µM | > 100 µM | > 71 µM | > 4.64 µM | > 25.1 µM | 54.7 µM | > 100 µM | 11.2 µM | > 4.64 µM |  |  |  |  |  |  |  |  |  | 
4 | COc1cc(C2c3cc4c(cc3C(O)C(CO)C2CO)OCO4)cc(OC)c1OC (stereo unspecified) |  | > 47 µM | > 100 µM | > 100 µM | > 100 µM | > 26.4 µM | > 100 µM | > 100 µM | > 100 µM | > 72 µM | 0.322 µM | 0.494 µM | 0.355 µM | 3.69 µM | 7.47 µM | 0.463 µM | 0.596 µM | 1.59 µM | 1.12 µM | 0.636 µM
5 | O=C(c1ccc(Cl)cc1)c1cnc(Nc2ccccc2Cl)s1 | > 100 µM | > 78.3 µM | 86.7 µM | > 100 µM | > 64.3 µM | > 59.8 µM | 55.5 µM | > 100 µM | 42.8 µM | 55.2 µM |  |  |  |  |  |  |  |  |  | 
6 | O=C(CC(O)(C(F)(F)F)C(F)(F)F)c1cc(CC(=O)C(O)(C(F)(F)F)C(F)(F)F)cc(CC(=O)C(O)(C(F)(F)F)C(F)(F)F)c1 | > 10 µM | 2.96 µM | 9.82 µM | 3.3 µM | > 6.85 µM | 2.25 µM | 3.95 µM | > 10 µM | 4.43 µM | 3.04 µM |  |  |  |  |  |  |  |  |  | 
7 | CCOC(=O)C(=Cc1cccc(Cl)c1)C(=O)OCC | 5.65 µM | 5.8 µM | 8.11 µM | 5.04 µM | 6.18 µM | 12.6 µM | 4.21 µM | 5.32 µM | 3.53 µM | 3.35 µM | 2.18 µM | 2.35 µM | 2.12 µM | 2.35 µM | 2.49 µM | 3.71 µM | 2.05 µM | 2.1 µM | 1.91 µM | 1.83 µM
8 | C[C@H]1Oc2cc(cnc2N)-c2c(nn(C)c2C#N)CN(C)C(=O)c2ccc(F)cc21 | > 100 µM | > 100 µM | > 100 µM | > 100 µM | > 100 µM | > 100 µM | > 100 µM | > 100 µM | > 90.9 µM | > 100 µM | > 100 µM | 0.275 µM | 5.42 µM | 18.1 µM | 40.8 µM | 28.2 µM | > 100 µM | > 100 µM | 16.7 µM | > 74.8 µM
9 | O=C(c1ccc(F)c(F)c1Nc1ccc(I)cc1F)N1CC(O)([C@@H]2CCCCN2)C1 | 2.33 µM and > 10 µM | 13.2 µM and > 10 µM | 20.1 µM and > 10 µM | 4.18 µM and > 9.06 µM | 23.3 µM and > 10 µM | 17.9 µM and > 10 µM | 18.8 µM and > 10 µM | 18.2 µM and > 10 µM | 7.17 µM and > 6.97 µM | 8.56 µM and > 10 µM | < 0.0172 µM and 0.00962 µM | < 0.0376 µM and 0.28 µM | 6.56 µM and > 10 µM | < 0.0254 µM and 0.0955 µM | 1.91 µM and 1.24 µM | 2.92 µM and 2.42 µM | 5.57 µM and > 9.27 µM | 0.992 µM and 3.1 µM | 0.743 µM and 0.396 µM | 
10 | O=c1cc(-c2ccccc2)[nH]c2c(S)cccc12 | > 100 µM | > 100 µM | > 100 µM | > 100 µM | 99.7 µM | > 100 µM | > 100 µM | > 100 µM | > 100 µM | > 100 µM |  |  |  |  |  |  |  |  |  | 
11 | COc1ccc(-c2oc(=O)ccc2-c2cc(OC)c(OC)c(OC)c2)cc1F | 26.8 µM | > 100 µM | > 100 µM | > 100 µM | > 100 µM | > 100 µM | > 100 µM | 61.4 µM | 29.1 µM | 58.7 µM | 3.52 µM | 4.52 µM | 9.74 µM | 16 µM | 66.4 µM | 5.43 µM | 37.2 µM | 11.1 µM | 11.6 µM | 7.46 µM
12 | Cc1ccc(-c2nc3ccc([N+](=O)[O-])cc3[nH]2)cc1 | > 100 µM | > 100 µM | > 100 µM | > 100 µM | > 100 µM | > 100 µM | > 100 µM | > 100 µM | > 100 µM | > 100 µM |  |  |  |  |  |  |  |  |  | 
13 | Cc1csc(Nc2nc(-c3cccc(Br)c3)nc(C(Cl)(Cl)Cl)n2)n1 | 3.96 µM | 4.82 µM | > 100 µM | > 100 µM | > 100 µM | 3.53 µM | > 100 µM | > 100 µM | 4.04 µM | > 100 µM | 1.04 µM | 1.58 µM | 1.43 µM | 2.78 µM | > 100 µM | 1.16 µM | 1.92 µM | 2.19 µM | 1 µM | > 100 µM
14 | CCOc1ccc2nc(S/C(=C/C=C(C#N)C#N)c3ccc(C)cc3)sc2c1 | 20.4 µM | > 100 µM | 79.6 µM | 43.4 µM | 42.4 µM | 57.9 µM | > 100 µM |  | 46.7 µM | 57.4 µM | 4.55 µM | 35.9 µM | 17.8 µM | 17.8 µM | 20.3 µM | 22.7 µM | 33.9 µM |  | 19.9 µM | 22.1 µM
